Each structure is given as a SMILES string.

For this assay, the system named is asymmetric di-methyl PABP1 in RKO cells. Kind of assay: RKO methylation assay, In Cell Western (ICW) for asymmetric di-methyl PABP1. The following applies: Homo sapiens, RKO, Cellular potencies, ICW PABP1me2a. In kind it is cell-based. The method in brief:
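RKO cells treated with compound for 48 h at 37 °C, then fixed, permeabilized and immunostained for asymmetric di-methyl PABP1, with DRAQ5 as DNA stain. Infrared 700/800 nm signal ratio normalized to DMSO and 20 μM reference-compound controls; IC50 from triplicate wells.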
As for `CNCC(O)COc1cccc(-c2nc(-c3cncn3C)cc(N(C)C3CCOCC3)n2)c1` (centres unmarked) [Example 580-1a], the IC50 (usually the concentration that gives 50% inhibition) was 10 to 20 µM. Under `CNCC(O)COc1cc(Cl)cc(-c2nc(NC3CCOCC3)cc(-c3c(C)noc3C)n2)c1` (centres unmarked) [Example 7-1a] stands 10 to 20 µM; under `CC[C@H]1CN(c2nc(-c3cccc(OCC(O)CNC)c3)nc(-c3c(C)noc3C)c2C)CCN1S(C)(=O)=O` (some centres unmarked) [Example 155-1a], < 5 µM. The result for `CNCC(O)COc1cccc(-c2nc(-c3ccncc3)cc(N(C)C3CCNCC3)n2)c1` (centres unmarked) [Example 669-1a] reads ≥ 20 µM; that for `CNC[C@@H](O)COc1ccc(Cl)c(-c2nc(-c3c(C)noc3C)c(C)c(N3CCc4nc(C)sc4C3)n2)c1` [Example 141-3], < 5 µM; that for `CNC[C@@H](O)COc1ccc(Cl)c(-c2nc(N[C@@H]3CCOC3)c(C)c(-c3c(C)noc3C)n2)c1` [Example 100-3], < 5 µM. As to `CNC[C@@H](O)COc1ccc(Cl)c(-c2nc(-c3c(C)noc3C)c(Cl)c(N3Cc4nccnc4C3)n2)c1` [Example 225-3], the IC50 was < 5 µM. Take `CNCC(O)COc1cccc(-c2nc(-c3ccnc(OC)c3)cc(N(C)C3CCOCC3)n2)c1` (centres unmarked) [Example 541-1a]: the IC50 was in the range of 10 to 20 µM. `CNCC(O)COc1cccc(-c2nc(OCC3CCN(C(=O)OC)CC3)c(C)c(-c3c(C)noc3C)n2)c1` (centres unmarked) [Example 284-1a]: the IC50 was < 5 µM. On to `CNC[C@@H](O)COc1ccc(C(F)(F)F)c(-c2nc(-c3c(C)noc3C)c(C)c(N3Cc4cncnc4C3)n2)c1` [Example 247-3], for which the IC50 was < 5 µM. `CNCC(O)COc1cccc(-c2nc(NC3(CO)CC3)c(C)c(-c3c(C)noc3C)n2)c1` (centres unmarked) [Example 5-3] showed an IC50 of 5 to 10 µM. Consider `CCOC(=O)N1CC[C@@H](Nc2nc(-c3cccc(OCC(O)CNC)c3)nc(-c3c(C)noc3C)c2C)[C@H](F)C1` (some centres unmarked) [Example 229-1a], for which the IC50 is < 5 µM. On to `CNCC(O)COc1cccc(-c2nc(NC3CCOC3)c(C)c(N3CCN4C(=O)OC[C@@H]4C3)n2)c1` (some centres unmarked) [Example 454-1a], for which the IC50 was in the range of 5 to 10 µM. As for `CNC[C@H](O)COc1ccc(Cl)c(-c2nc(-c3c(C)noc3C)c(C)c(N3Cc4cc(Cl)cnc4C3)n2)c1` [Example 87-3], the IC50 is < 5 µM. Under `CNC[C@@H](O)COc1ccc(Cl)c(-c2nc(-c3c(C)noc3C)c(C)c(N3CC4CC4C3)n2)c1` (some centres unmarked) [Example 235-3] stands < 5 µM; under `CNC[C@@H](O)COc1ccc(Cl)c(-c2nc(-c3c(C)noc3C)c(C)c(N3CCC3)n2)c1` [Example 238-3], < 5 µM; under `CNCC(O)COc1cccc(-c2nc(NC3CCOCC3)c(C)c(-c3c(CO)noc3C)n2)c1` (centres unmarked) [Example 256-3], 5 to 10 µM.

In the case of `CNCC(O)COc1cccc(-c2nc(-c3c(C)noc3C)c(C)c(N3CCO[C@@H](CN(C)C)C3)n2)c1` (some centres unmarked) [Example 148-1a], the IC50 was < 5 µM. The compound `CNCC(O)COc1cccc(-c2nc(-c3cnc4nccn4c3)cc(N(C)C3CCOCC3)n2)c1` (centres unmarked) [Example 620-1a] yielded an IC50 of 10 to 20 µM. As to `CNCC(O)COc1cccc(-c2nc(N[C@@H]3CCOC3)c(C)c(N3CCC(c4cccnc4)C3)n2)c1` (some centres unmarked) [Example 461-1a], the IC50 lay in the range of 10 to 20 µM. Regarding `CNCC(O)COc1cccc(-c2nc(NCC3CCN(C4CC4)CC3)c(C)c(-c3c(C)noc3C)n2)c1` (centres unmarked) [Example 283-1a], the IC50 was < 5 µM. Regarding `CNC[C@@H](O)COc1ccc(Cl)c(-c2nc(N[C@H]3C[C@@H](C)O[C@@H](C)C3)c(C)c(-c3c(C)noc3C)n2)c1` [Example 172-3], the IC50 is < 5 µM. In the case of `CNCC(O)COc1cccc(-c2nc(N[C@H]3C[C@@](C)(O)C3)c(C)c(-c3c(C)noc3C)n2)c1` (some centres unmarked) [Example 255-1a], the IC50 is < 5 µM. Under `CNCC(O)COc1cccc(-c2nc(NCC3CCOCC3)c(Cl)c(-c3c(C)noc3C)n2)c1` (centres unmarked) [Example 142-1a] stands < 5 µM; under `CNCC(O)COc1cccc(-c2nc(OCC3CCN(S(C)(=O)=O)CC3)c(C)c(-c3c(C)noc3C)n2)c1` (centres unmarked) [Example 286-1a], < 5 µM; under `CNCC(O)COc1cccc(-c2nc(N[C@H]3C[C@@H](O)C3)cc(-c3c(C)noc3C)n2)c1` (some centres unmarked) [Example 41-1a], 10 to 20 µM. On to `CNC[C@@H](O)COc1cccc(-c2nc(NC3CCN(C(=O)OC)CC3)c(C)c(-c3c(C)noc3C)n2)c1` [Example 170-1a], for which the IC50 was < 5 µM. Under `CNC[C@@H](O)COc1ccc(Cl)c(-c2nc(N[C@H]3C[C@@H](OC)C3)c(Cl)c(-c3c(C)noc3C)n2)c1` [Example 216-3] stands < 5 µM; under `CNCC(O)COc1cccc(-c2nc(NC3CCN(C4CC4)CC3)c(C)c(-c3c(C)noc3C)n2)c1` (centres unmarked) [Example 185-1a], < 5 µM. The result for `CCN1CCN(c2cc(-c3c(C)noc3C)nc(-c3cccc(OCC(O)CNC)c3)n2)CC1` (centres unmarked) [Example 20-1a] reads 5 to 10 µM; that for `CNCC(O)COc1cccc(-c2nc(N[C@@H]3CCOC3)c(C)c(N3C[C@H]4CNC[C@H]4C3)n2)c1` (some centres unmarked) [Example 440-1a], 10 to 20 µM. On to `CNCC(O)COc1cccc(-c2nc(-c3c(C)nn(C)c3C)cc(N(C)C3CCOCC3)n2)c1` (centres unmarked) [Example 528-1a], for which the IC50 was 5 to 10 µM.

Compound `CNCC(O)COc1cccc(-c2nc(-c3c(C)noc3C)cc(N(C)c3cnc(OC)nc3)n2)c1` (centres unmarked) [Example 51-1a] returned an IC50 of 10 to 20 µM.

For the compound `CNCC(O)COc1cccc(-c2nc(N[C@@H]3CCOC3)c(C)c(N3CC[C@@H](c4cccnc4)C3)n2)c1` (some centres unmarked) [Example 467-1a], the IC50 was < 5 µM. Take `CNCC(O)COc1cccc(-c2nc(-c3cnc4n3CCNC4)cc(N(C)C3CCOCC3)n2)c1` (centres unmarked) [Example 563-1a]: the IC50 was 10 to 20 µM. For the compound `CNCC(O)COc1cccc(-c2nc(NC3CCCC3)c(C)c(-c3c(C)noc3C)n2)c1` (centres unmarked) [Example 241-1a], the IC50 is < 5 µM. For the compound `CCO[C@@H]1CCC[C@@H]1Nc1nc(-c2cc(OC[C@H](O)CNC)ccc2Cl)nc(-c2c(C)noc2C)c1C` [Example 253-3], the IC50 was < 5 µM. As to `CNC[C@@H](O)COc1ccc(Cl)c(-c2nc(N[C@@H]3CCN(C4CC4)C[C@@H]3F)c(Cl)c(-c3c(C)noc3C)n2)c1` [Example 211-3], the IC50 was < 5 µM. Turning to `CNC[C@H](O)COc1ccc(Cl)c(-c2nc(-c3c(C)noc3C)c(C)c(N3Cc4cccnc4C3)n2)c1` [Example 92-3], the IC50 is < 5 µM. The compound `CNCC(O)COc1cccc(-c2nc(-c3ccncc3)c(C)c(N(C)C3CCOCC3)n2)c1` (centres unmarked) [Example 537-1a] gave an IC50 of 5 to 10 µM. On to `CCOC(=O)N1CC[C@@H](Nc2nc(-c3cc(OC[C@H](O)CNC)ccc3Cl)nc(-c3c(C)noc3C)c2Cl)C1` [Example 129-3], for which the IC50 was < 5 µM. Consider `CNC[C@@H](O)COc1cccc(-c2nc(NC3CCN(C(=O)OC)C(C)C3)c(C)c(-c3c(C)noc3C)n2)c1` (some centres unmarked) [Example 32-3], for which the IC50 is < 5 µM. For the compound `CCOC(=O)N1CCN(c2nc(-c3cccc(OCC(O)CNC)c3)nc(-c3c(C)noc3C)c2C)CC1` (centres unmarked) [Example 77-1a], the IC50 is < 5 µM. For `CNCC(O)COc1cccc(-c2nc(-c3c(C)noc3C)c(C)c(N3C[C@@H](C)O[C@@H](C)C3)n2)c1` (some centres unmarked) [Example 164-1a], the IC50 is < 5 µM.

Take `CNCC(O)COc1cccc(-c2nc(NC3CCOC3)c(C)c(N3CC4(CCNCC4)c4ccccc43)n2)c1` (centres unmarked) [Example 398-1a]: the IC50 is 10 to 20 µM. In the case of `CNCC(O)COc1cccc(-c2nc(-c3c(C)noc3C)cc(N3CCN(C(C)=O)C[C@H]3C)n2)c1` (some centres unmarked) [Example 39-1a], the IC50 is 5 to 10 µM.

With `CNCC(O)COc1cccc(-c2nc(NC3CCOC3)cc(-c3c(C)noc3C)n2)c1` (centres unmarked) [Example 31-1a], the IC50 was in the range of 5 to 10 µM. Under `CNCC(O)COc1cccc(-c2nc(N[C@@H]3COC(=O)C3)c(C)c(-c3c(C)noc3C)n2)c1` (some centres unmarked) [Example 268-1a] stands 10 to 20 µM; under `CNCC(O)COc1cccc(-c2nc(-c3c(C)noc3C)c(C)c(N3CCn4ccnc4C3)n2)c1` (centres unmarked) [Example 34-3], 5 to 10 µM. With `CNCC(O)COc1cccc(-c2nc(NC3CCN(C4COC4)C3)c(C)c(-c3c(C)noc3C)n2)c1` (centres unmarked) [Example 240-1a], the IC50 was < 5 µM. As for `CNC[C@@H](O)COc1ccc(F)c(-c2nc(-c3c(C)noc3C)c(C)c(N3Cc4cccnc4C3)n2)c1` [Example 114-3], the IC50 is < 5 µM. As to `CNC[C@@H](O)COc1ccc(Cl)c(-c2nc(-c3c(C)noc3C)c(C)c(N3CCC4(CCCO4)C3)n2)c1` (some centres unmarked) [Example 289-3], the IC50 is < 5 µM.

With `CNCC(O)COc1cccc(-c2nc(-c3cnc4cnccn34)cc(N(C)C3CCOCC3)n2)c1` (centres unmarked) [Example 490-1a], the IC50 is < 5 µM.

For the compound `CNCC(O)COc1cccc(-c2nc(-c3c(C)noc3C)c(C)c(N3CCN(C(=O)C(F)F)CC3)n2)c1` (centres unmarked) [Example 107-1a], the IC50 is < 5 µM. For `Cc1noc(C)c1-c1nc(-c2cc(OC[C@H](O)CN(C)C)ccc2Cl)nc(N[C@H]2CCN(C3CC3)[C@@H](C)C2)c1C` [Example 171-3], the IC50 was < 5 µM.

`CNC[C@@H](O)COc1ccc(Cl)c(-c2nc(N[C@@H]3CCO[C@H](C)C3)c(C)c(-c3c(C)noc3C)n2)c1` [Example 132-3]: the IC50 was < 5 µM.

On to `CNCC(O)COc1ccc(Cl)c(-c2nc(NC3CCN(C(=O)OC)CC3)c(C)c(-c3c(C)noc3C)n2)c1` (centres unmarked) [Example 270-1a], for which the IC50 was < 5 µM. The result for `CNC[C@@H](O)COc1ccc(Cl)c(-c2nc(-c3c(C)noc3C)c(C)c(N3CCC4(CCOC4)C3)n2)c1` (some centres unmarked) [Example 288-3] reads < 5 µM. Turning to `CNCC(O)COc1cccc(-c2nc(-c3c(C)noc3C)c(C)c(N3CC4(CN(C(=O)OC)C4)C3)n2)c1` (centres unmarked) [Example 299-1a], the IC50 is < 5 µM.

Consider `CCS(=O)(=O)N1CCC(Nc2nc(-c3cc(OC[C@@H](O)CNC)ccc3Cl)nc(-c3c(C)noc3C)c2C)CC1` [Example 67-3], for which the IC50 is < 5 µM. The result for `CNCC(O)COc1ccc(Cl)c(-c2nc(NC3(C)CCOCC3)c(Cl)c(-c3c(C)noc3C)n2)c1` (centres unmarked) [Example 137-1a] reads < 5 µM; that for `CCS(=O)(=O)N1CC2(CCN(c3nc(-c4cccc(OCC(O)CNC)c4)nc(-c4c(C)noc4C)c3C)CC2)C1` (centres unmarked) [Example 253-1a], < 5 µM.

The record behind these values is patent US10633389B2, “CARM1 inhibitors and uses thereof” (Epizyme, Inc., priority 2013, dated 2020).
